Measurements published in patent publication US20110039763A1, “TARGETED ANTIMICROBIAL MOIETIES” (C3 JIAN, INC., priority 2009, published 2011).
Entries after “also recorded” stand apart in the source; their conditions may differ.

Tested on: microorganisms
Test: Targeting peptide binding to target microorganisms (Tables 3, 10, 12)
Details: microorganism(s) the targeting peptide binds; binding in aqueous buffers that varied with peptide solubility, preferably 1x PBS

| Substance | Target(s) |
| --- | --- |
| PF-018 (YYKTYFKEV; Peptide with targeting and/or antimicrobial activity) | E. coli; also recorded: C. jeikeium |
| 1T-286 (LGFFNNKADLVKADTERDNRMSSLKIKDL; Peptide with targeting and/or antimicrobial activity) | S. sanguinis |
| 1T-249 (VFSVLKHTTWPTRKQSWHDFISILEYSAFFALVIFIFDKLLTLGLAELLKRF; Peptide with targeting and/or antimicrobial activity) | F. nucleatum; also recorded: S. sanguinis |
| 1T-295 (KYKLKKIIL; Peptide with targeting and/or antimicrobial activity) | S. mitis; also recorded: S. salivarious; also recorded: S. sanguinis |
| TT-311 (AIFDAMHNL; Peptide with targeting and/or antimicrobial activity) | S. mutans; also recorded: S. sobrinus |
| 1T-273 (YNEPNYKWLESYKIYKQRCEDRTGMYYTEET; Peptide with targeting and/or antimicrobial activity) | F. nucleatum; also recorded: P. gingivalis; also recorded: T. denticola; also recorded: S. mitis; also recorded: S. mutans; also recorded: S. oralis |
| 1T-287 (KGYPLPFQYRLNNH; Peptide with targeting and/or antimicrobial activity) | P. gingivalis; also recorded: T. denticola; also recorded: S. gordonii; also recorded: S. mitis; also recorded: S. mutans; also recorded: S. oralis; also recorded: S. salivarious; also recorded: S. sanguinis |
| 1T-217 (MLSNVLSRSVVSPNVDIPNSMVILSPLLISISNYH; Peptide with targeting and/or antimicrobial activity) | F. nucleatum; also recorded: S. sanguinis |

Same assay, conditions: microorganism(s) the targeting peptide binds; binding in aqueous buffers varied with peptide solubility, preferably 1x PBS

| Substance | Target(s) |
| --- | --- |
| PF-359 (MTVMEDPGSEQRNKIQSPMKGEDFSALFGR; Peptide with targeting and/or antimicrobial activity) | S. epidermidis and B. fragilis and P. aeruginosa and C. albicans and MRSA and E. faecalis and C. jeikeium |
| PF-650 (IRSDQPGRQSRSSPRWPTGAGRHR; Peptide with targeting and/or antimicrobial activity) | Mycobacteria spp |
| PF-492 (IQIDAASFYSISKSTIK; Peptide with targeting and/or antimicrobial activity) | S. mutans; also recorded: B. subtilis; also recorded: E. coli |
| PF-285 (VPAKLLRVIDEIPE; Peptide with targeting and/or antimicrobial activity) | S. mutans |
| PF-187 (EIQKIAKGVSGQVYGPSRQITISKKR; Peptide with targeting and/or antimicrobial activity) | S. epidermidis and M. luteus and E. coli and MRSA |
| PF-676 (AEYRGL; Peptide with targeting and/or antimicrobial activity) | S. mutans; also recorded: E. coli |
| PF-510 (WYLYKKQSNQNDRGIPK; Peptide with targeting and/or antimicrobial activity) | S. mutans; also recorded: E. coli |
| PF-C273 (KNMLKRRMKQKRLFDEEDRLRVLSKYTKSYY; Peptide with targeting and/or antimicrobial activity) | A. naeslundii; also recorded: P. gingivalis; also recorded: S. mutans; also recorded: T. denticola |
| PF-441 (TQVHKMARGIDPGPANGIYR; Peptide with targeting and/or antimicrobial activity) | C. jeikeium |
| PF-707 (IDPESIVTTNNKQDNVDEQ; Peptide with targeting and/or antimicrobial activity) | S. mutans; also recorded: E. coli |
| PF-182 (LPATRDKTRVPASVAGAP; Peptide with targeting and/or antimicrobial activity) | S. epidermidis; also recorded: M. luteus; also recorded: E. coli; also recorded: E. faecalis; also recorded: C. jeikeium |
| PF-348 (ESASAAEWYNPNMNVKKAICMG; Peptide with targeting and/or antimicrobial activity) | B. subtilis; also recorded: E. coli; also recorded: P. aeruginosa; also recorded: C. albicans; also recorded: E. faecalis; also recorded: C. jejuni |
| PF-207 (AAGCRDLGSLSSLVTNPS; Peptide with targeting and/or antimicrobial activity) | M. luteus; also recorded: C. jeikeium |
| PF-236 (KEIRTATVAELNAKRRLTSAEQALAEVS; Peptide with targeting and/or antimicrobial activity) | S. mutans; also recorded: S. epidermidis; also recorded: E. coli; also recorded: C. albicans; also recorded: S. pneumoniae; also recorded: E. faecalis |
| PF-S029 (TSDTQSQSPWLFDNADIVNIYPVQLMHSSDND; Peptide with targeting and/or antimicrobial activity) | M. luteus; also recorded: P. mirabilis; also recorded: E. coli; also recorded: C. albicans; also recorded: C. jeikeium; also recorded: C. jejuni |
| PF-S004 (VLLNIFRTLLEFFSPSNAPGAEDVPLPDTQA; Peptide with targeting and/or antimicrobial activity) | S. epidermidis and MRSA and C. jeikeium |
| PF-320 (DSGYYALLENKEERVVWDGEVVANNIFNNLWIVVNKVKTG; Peptide with targeting and/or antimicrobial activity) | S. mutans; also recorded: E. coli |
| PF-794 (NLYFENQGN; Peptide with targeting and/or antimicrobial activity) | S. mutans |
| PF-674 (DGCDSEPALTYR; Peptide with targeting and/or antimicrobial activity) | S. mutans; also recorded: E. coli |
| PF-097 (QPTQGEQGTRPRRPTPMRGLLI; Peptide with targeting and/or antimicrobial activity) | C. jeikeium |
| PF-159 (TMAFVEKAQLRVPVGDDLPV; Peptide with targeting and/or antimicrobial activity) | S. epidermidis |
| PF-352 (RVKKIG; Peptide with targeting and/or antimicrobial activity) | C. jeikeium |
| PF-225 (MNCASPEFKKLMELYK; Peptide with targeting and/or antimicrobial activity) | S. epidermidis |
| PF-244 (HMRTISYLLAFAKFSLFIPPKQSLKRL; Peptide with targeting and/or antimicrobial activity) | S. epidermidis; also recorded: M. luteus; also recorded: P. aeruginosa; also recorded: A. baumannii |
| PF-709 (NKKHSPMD; Peptide with targeting and/or antimicrobial activity) | S. mutans |

Same assay, conditions: peptide binding in aqueous buffers that varied with peptide solubility; preferably 1x PBS

| Substance | Target(s) (microorganism bound by the targeting peptide) |
| --- | --- |
| 1T-121 (FAKETGFGIGGAQEGWWIIADIYGPNPF; Peptide with targeting and/or antimicrobial activity) | S. gordonii; also recorded: S. mitis; also recorded: S. mutans; also recorded: S. oralis; also recorded: S. salivarious; also recorded: S. sanguinis |
| 1T-177 (GTNVPTQILGYSREERFDYEPAPEQR; Peptide with targeting and/or antimicrobial activity) | P. gingivalis; also recorded: S. gordonii; also recorded: S. mitis; also recorded: S. mutans; also recorded: S. oralis; also recorded: S. salivarious; also recorded: S. sanguinis |
| 1T-42 (TVLDWLSLALATGLFVYLLVALLRADRA; Peptide with targeting and/or antimicrobial activity) | S. aureus; also recorded: S. epidermidis; also recorded: C. xerosis; also recorded: C. striatum; also recorded: P. aeruginosa |
| 1T-104 (RAVAAHLQGRHHGHQVRRQRHGQR; Peptide with targeting and/or antimicrobial activity) | S. mitis |
| 1T-119 (SPATQKAPTRAQPSRAPVQDCGDGRPTAAPDDVERLSPR; Peptide with targeting and/or antimicrobial activity) | S. gordonii; also recorded: S. mitis; also recorded: S. mutans; also recorded: S. oralis |
| 1T-49 (SLVRIHDQQPWVTRGAFIDAARTCS; Peptide with targeting and/or antimicrobial activity) | S. aureus; also recorded: S. epidermidis; also recorded: C. jeikeium; also recorded: P. aeruginosa |
| 1T-125 (DAITGGNPPLSDTDGLRP; Peptide with targeting and/or antimicrobial activity) | S. epidermidis; also recorded: S. gordonii; also recorded: S. mutans; also recorded: S. oralis |
| 1T-52 (DEYPAKLPLSDKGATEPRRH; Peptide with targeting and/or antimicrobial activity) | S. aureus; also recorded: C. xerosis; also recorded: P. aeruginosa |
| 1T-94 (DQVAHSGDMLVQARRRDS; Peptide with targeting and/or antimicrobial activity) | S. mitis; also recorded: S. mutans; also recorded: S. oralis |
| 1T-114 (RQAPGPGLVTITAACSAPGSRSR; Peptide with targeting and/or antimicrobial activity) | A. naeslundii; also recorded: P. gingivalis; also recorded: S. epidermidis; also recorded: S. gordonii; also recorded: S. mitis; also recorded: S. mutans; also recorded: S. oralis; also recorded: S. sanguinis |
| 1T-37 (YIVGALVILAVAGLIYSMLRKA; Peptide with targeting and/or antimicrobial activity) | S. mutans; also recorded: S. aereus; also recorded: S. epidermidis; also recorded: C. jeikeium; also recorded: C. xerosis; also recorded: C. striatum; also recorded: P. aeruginosa |
| 1T-13 (FRSPCINNNSLQPPGVYPAR; Peptide with targeting and/or antimicrobial activity) | S. aureus; also recorded: S. epidermidis; also recorded: P. aeruginosa |
| 1T-57 (RLEYRRLETQVEENPESGRRPMRG; Peptide with targeting and/or antimicrobial activity) | P. aeruginosa |
